Patent publication US9936701B2, “Herbicidal compounds” (Syngenta Participations AG, priority 2013, dated 2018)

Assays:
[1] = tested on: a variety of test species; experiment: Pre-emergence herbicidal activity (glasshouse, sprayed one day after sowing, evaluated after 13 days); assay type: in vivo; set-up: key: 5=total damage to plant; 0=no damage to plant; conditions: application pre-emergence, rate 1000 g/Ha, scale 0-5
Outline: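 Pre-emergence spray, one day post-sowing; vehicle acetone/water (50:50) + 0.5% Tween 20, aqueous dilution. Glasshouse 24/16 °C, 14 h light, 65% RH, watering twice daily. Score at 13 d on 0–5 scale, 5 = total damage.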

[2] = tested on: a variety of test species; experiment: Post-emergence herbicidal activity (glasshouse, sprayed after 8 days cultivation, evaluated after 13 days); assay type: in vivo; set-up: key: 5=total damage to plant; 0=no damage to plant; conditions: rate 1000 g/Ha, scale 0-5
Outline: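 Pot-grown plants, 8 days after sowing, were sprayed with compound formulated in acetone/water (50:50) with 0.5% Tween 20. Glasshouse conditions 24/16° C day/night, 14 h light, 65% humidity; damage scored after 13 days on a 0 (none) to 5 (total) scale.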

| Compound | melting point [°C] | Pre-emergence herbicidal damage score, ABUTH [1] | Pre-emergence herbicidal damage score, ALOMY [1] | Pre-emergence herbicidal damage score, AMARE [1] | Pre-emergence herbicidal damage score, ECHCG [1] | Pre-emergence herbicidal damage score, SETFA [1] | Pre-emergence herbicidal damage score, ZEAMX [1] | ABUTH (Abutilon theophrasti) damage score, application post-emergence [2] | ALOMY (Alopecurus myosuroides) damage score, application post-emergence [2] | AMARE (Amaranthus retroflexus) damage score, application post-emergence [2] | ECHCG (Echinochloa crus-galli) damage score, application post-emergence [2] | SETFA (Setaria faberi) damage score, application post-emergence [2] | ZEAMX (Zea mays) damage score, application post-emergence [2] |
| --- | --- | --- | --- | --- | --- | --- | --- | --- | --- | --- | --- | --- | --- |
| CC1=C(Cl)C(=O)N(c2cc(CC(C)C)on2)C1O (stereo not drawn) [A12] | 138 to 140 | 5 | 4 | 4 | 5 | 5 | 1 | 5 | 5 | 5 | 5 | 5 | 4 |
| CC1=C(Cl)C(=O)N(c2cc(C3CCC3)on2)C1O (stereo not drawn) [A21] | 130 to 132 | – | 3 | 5 | 5 | 3 | – | – | 5 | 5 | 5 | 5 | – |
| CC1=C(Cl)C(=O)N(c2cc(C3CC3)on2)C1O (stereo not drawn) [A22] | 174 to 176 | 5 | 4 | 4 | 5 | 5 | 1 | 5 | 5 | 5 | 5 | 5 | 4 |

The next lines start with results.

| melting point [°C] | Compound | Pre-emergence herbicidal damage score, ABUTH [1] | Pre-emergence herbicidal damage score, ALOMY [1] | Pre-emergence herbicidal damage score, AMARE [1] | Pre-emergence herbicidal damage score, ECHCG [1] | Pre-emergence herbicidal damage score, SETFA [1] | Pre-emergence herbicidal damage score, ZEAMX [1] | ABUTH (Abutilon theophrasti) damage score, application post-emergence [2] | ALOMY (Alopecurus myosuroides) damage score, application post-emergence [2] | AMARE (Amaranthus retroflexus) damage score, application post-emergence [2] | ECHCG (Echinochloa crus-galli) damage score, application post-emergence [2] | SETFA (Setaria faberi) damage score, application post-emergence [2] | ZEAMX (Zea mays) damage score, application post-emergence [2] |
| --- | --- | --- | --- | --- | --- | --- | --- | --- | --- | --- | --- | --- | --- |
| 126 to 128 | CC1=C(Cl)C(=O)N(c2cc(C(C)C)on2)C1O (stereo not drawn) [A11] | 5 | 4 | 5 | 5 | 5 | 2 | 5 | 5 | 5 | 5 | 5 | 5 |
| 98 to 100 | CC1=C(Cl)C(=O)N(c2noc(C(C)(C)C)c2F)C1O (stereo not drawn) [A19, 1-(5-tert-butyl-4-fluoro-isoxazol-3-yl)-4-chloro-2-hydroxy-3-methyl-2H-pyrrol-5-one] | – | 4 | 5 | 5 | 5 | – | – | 5 | 5 | 5 | 5 | – |
| 134 to 136 | CC1=C(Cl)C(=O)N(c2noc(C(C)(C)C)c2C)C1O (stereo not drawn) [A20, 1-(5-tert-butyl-4-methyl-isoxazol-3-yl)-4-chloro-2-hydroxy-3-methyl-2H-pyrrol-5-one] | – | 4 | 1 | 5 | 5 | – | – | 5 | 4 | 5 | 5 | – |
